Among the data in ChEMBL document CHEMBL5584352, “Targeted Discovery of a Natural ortho-Quinone Methide Precursor and Green Generation of Its Oligomers” (J Nat Prod, 2024) are Activity, MIC and IC50 values, retold here.

Values after ≈ are worked out from the molar mass of the structure shown. Active and inactive are the calls of the source. No cut-off for these calls is given here.

One experiment relates to Staphylococcus aureus. Put plainly: Antibacterial activity against Staphylococcus aureus 209P assessed as reduction in bacterial growth incubated for 24 hrs by two fold serial dilution method. It is filed as functional.
Another experiment deals with HeLa. The experiment is described as follows: Cytotoxicity against human HeLa cells assessed as reduction in cell viability incubated for 24 hrs by MTT assay. The class given is functional, cell-based. (In general: Tetrazolium assays rely on reduction of a dye to a coloured formazan, in cell work by metabolically active cells.)
The next experiment has as its system Escherichia coli. The experiment is described as follows: Antibacterial activity against Escherichia coli ATCC 0111 assessed as reduction in bacterial growth incubated for 24 hrs by two fold serial dilution method. The class given is functional, organism-based.

For the compound `CC(=O)[C@@H](C)c1cc(O)c(Cc2c(O)cc(O)c(Cc3c(O)cc([C@H](C)C(C)=O)c(C=O)c3O)c2C)c(O)c1C=O`, the outcome in the experiment on Staphylococcus aureus, in the experiment with HeLa and in the experiment on Escherichia coli was inactive.

`CC(=O)[C@@H](C)c1cc(O)c(Cc2c(O)cc(O)c3c(O)c4c(=O)cc(C)oc4cc23)c(O)c1C=O`: the result in the experiment on Staphylococcus aureus, in the experiment with HeLa and in the experiment with Escherichia coli was inactive.

Regarding `CC(=O)[C@@H](C)c1cc(O)c(C)c(O)c1C=O`, the outcome in the experiment on Staphylococcus aureus, in the experiment on HeLa and in the experiment with Escherichia coli was inactive.

For the compound `CC(=O)[C@@H](C)c1cc(O)c(CO)c(O)c1C=O`, the outcome with Staphylococcus aureus, in the experiment with HeLa and with Escherichia coli was inactive.

As to `CC(=O)[C@@H](C)c1cc(O)c(Cc2c3cc(O)cc(O)c3c(O)c3c(=O)cc(C)oc23)c(O)c1C=O`, in the experiment on Staphylococcus aureus, the MIC was determined as 32 µg/mL (≈ 66.9 µM). Besides, in the experiment with HeLa, the IC50 stood at 12.4 µM. Also, the result with Escherichia coli was inactive.

As to `Cc1c(C)c(C(=O)O)c(O)c(C)c1O`, the result in the experiment with Staphylococcus aureus, in the experiment on HeLa and with Escherichia coli was inactive.

As for `Cc1cc(=O)c2c(O)c3c(O)cc(O)cc3cc2o1`, the outcome with Staphylococcus aureus, in the experiment with HeLa and in the experiment with Escherichia coli was inactive.

With `CC(=O)[C@@H](C)c1cc(O)c(Cc2c(C)c(C)c(O)c(C)c2O)c(O)c1C=O`, the outcome with Staphylococcus aureus, in the experiment on HeLa and with Escherichia coli was inactive.

Consider `Cc1cc(O)c(C)c(O)c1C`, for which the outcome with Staphylococcus aureus, in the experiment on HeLa and in the experiment on Escherichia coli was inactive.

For `CC(=O)[C@@H](C)c1cc(O)c(Cc2c(C)cc(O)cc2O)c(O)c1C=O`, the result in the experiment with Staphylococcus aureus, in the experiment with HeLa and with Escherichia coli was inactive.

As a reminder, the MIC is the lowest concentration found to suppress growth. One may read the IC50 as the point on the concentration scale where inhibition reaches its midpoint.
